Read-outs that look alike come from different tables or passages of the source.
Tests used:
PI3K delta = target: T1, PI3K delta (Homo sapiens, UniProt O00329); experiment: PI3K delta kinase assay (Kinase-Glo luminescence); format: biochemical
T1 construct: for the full-length p110-d subunit are generated and fused by overlapping PCR; His tag (C); made in house; host or cells: baculovirus BV1060; Tn5 (Trichoplusia ni) or TiniPro insect cells
Procedure, shortened: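 IC50s derive from 8-point inhibition curves fitted to a 4-parameter logistic model. Reaction: 10 nM purified p110δ/p85 iSH2 fusion, 1 μM ATP, 10 μg/mL PI substrate, pH 7.5 Tris buffer with MgCl2, NaCl, CHAPS and DTT, run 60 min at room temperature; remaining ATP read by Kinase-Glo luminescence.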

mTOR = target: T2, mTOR (Homo sapiens, UniProt P42345); experiment: Biochemical assay for m-TOR by TR-FRET
T2 construct: purchased Invitrogen Corporation (Carlsbad/Calif., USA) PV4753
T2 sequence (P42345 1360-2549 limits assumed): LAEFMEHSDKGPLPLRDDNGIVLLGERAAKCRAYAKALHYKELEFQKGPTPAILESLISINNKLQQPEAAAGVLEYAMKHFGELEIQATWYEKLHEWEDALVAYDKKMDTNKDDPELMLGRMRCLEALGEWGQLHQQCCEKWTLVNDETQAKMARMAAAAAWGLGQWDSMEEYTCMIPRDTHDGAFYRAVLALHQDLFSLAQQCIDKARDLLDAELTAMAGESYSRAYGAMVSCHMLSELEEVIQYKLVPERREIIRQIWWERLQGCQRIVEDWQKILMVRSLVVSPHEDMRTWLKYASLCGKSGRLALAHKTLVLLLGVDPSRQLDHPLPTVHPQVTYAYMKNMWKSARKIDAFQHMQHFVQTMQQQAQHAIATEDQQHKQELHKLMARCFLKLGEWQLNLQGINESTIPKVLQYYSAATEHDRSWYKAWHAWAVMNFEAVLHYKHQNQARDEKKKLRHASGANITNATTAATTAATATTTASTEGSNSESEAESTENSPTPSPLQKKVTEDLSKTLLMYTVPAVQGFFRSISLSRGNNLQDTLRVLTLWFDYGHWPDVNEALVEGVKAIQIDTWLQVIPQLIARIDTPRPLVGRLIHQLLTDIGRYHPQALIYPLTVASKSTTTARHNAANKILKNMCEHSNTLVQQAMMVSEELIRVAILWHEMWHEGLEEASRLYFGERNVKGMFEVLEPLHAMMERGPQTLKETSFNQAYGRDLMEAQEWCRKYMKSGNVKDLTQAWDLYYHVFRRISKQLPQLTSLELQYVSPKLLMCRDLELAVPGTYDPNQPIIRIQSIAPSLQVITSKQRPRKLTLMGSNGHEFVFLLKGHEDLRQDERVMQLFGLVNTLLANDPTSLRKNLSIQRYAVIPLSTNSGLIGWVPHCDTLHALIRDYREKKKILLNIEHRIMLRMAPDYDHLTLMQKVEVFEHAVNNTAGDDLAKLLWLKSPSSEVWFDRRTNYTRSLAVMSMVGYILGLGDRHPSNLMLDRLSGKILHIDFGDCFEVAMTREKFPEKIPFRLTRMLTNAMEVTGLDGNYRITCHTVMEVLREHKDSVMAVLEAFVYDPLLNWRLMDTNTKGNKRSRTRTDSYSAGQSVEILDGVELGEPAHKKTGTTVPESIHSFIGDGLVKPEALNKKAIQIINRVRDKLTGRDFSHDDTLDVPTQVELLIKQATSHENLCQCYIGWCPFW
Procedure, shortened: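 mTOR (0.5 nM) phosphorylates GFP-4EBP1 (400 nM) with 8 μM ATP at rt in 50 mM HEPES pH 7.5, 10 mM MnCl2, 50 mM NaCl, 1 mM EGTA, 1 mM DTT; compounds 0.003–10 μM final. EDTA stop with Tb-anti-p4EBP1[pT46] antibody (0.5 nM); TR-FRET read after 15 min against no-enzyme and vehicle controls.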

T1 sequence (O00329 with tags, fused parts or gaps limits assumed): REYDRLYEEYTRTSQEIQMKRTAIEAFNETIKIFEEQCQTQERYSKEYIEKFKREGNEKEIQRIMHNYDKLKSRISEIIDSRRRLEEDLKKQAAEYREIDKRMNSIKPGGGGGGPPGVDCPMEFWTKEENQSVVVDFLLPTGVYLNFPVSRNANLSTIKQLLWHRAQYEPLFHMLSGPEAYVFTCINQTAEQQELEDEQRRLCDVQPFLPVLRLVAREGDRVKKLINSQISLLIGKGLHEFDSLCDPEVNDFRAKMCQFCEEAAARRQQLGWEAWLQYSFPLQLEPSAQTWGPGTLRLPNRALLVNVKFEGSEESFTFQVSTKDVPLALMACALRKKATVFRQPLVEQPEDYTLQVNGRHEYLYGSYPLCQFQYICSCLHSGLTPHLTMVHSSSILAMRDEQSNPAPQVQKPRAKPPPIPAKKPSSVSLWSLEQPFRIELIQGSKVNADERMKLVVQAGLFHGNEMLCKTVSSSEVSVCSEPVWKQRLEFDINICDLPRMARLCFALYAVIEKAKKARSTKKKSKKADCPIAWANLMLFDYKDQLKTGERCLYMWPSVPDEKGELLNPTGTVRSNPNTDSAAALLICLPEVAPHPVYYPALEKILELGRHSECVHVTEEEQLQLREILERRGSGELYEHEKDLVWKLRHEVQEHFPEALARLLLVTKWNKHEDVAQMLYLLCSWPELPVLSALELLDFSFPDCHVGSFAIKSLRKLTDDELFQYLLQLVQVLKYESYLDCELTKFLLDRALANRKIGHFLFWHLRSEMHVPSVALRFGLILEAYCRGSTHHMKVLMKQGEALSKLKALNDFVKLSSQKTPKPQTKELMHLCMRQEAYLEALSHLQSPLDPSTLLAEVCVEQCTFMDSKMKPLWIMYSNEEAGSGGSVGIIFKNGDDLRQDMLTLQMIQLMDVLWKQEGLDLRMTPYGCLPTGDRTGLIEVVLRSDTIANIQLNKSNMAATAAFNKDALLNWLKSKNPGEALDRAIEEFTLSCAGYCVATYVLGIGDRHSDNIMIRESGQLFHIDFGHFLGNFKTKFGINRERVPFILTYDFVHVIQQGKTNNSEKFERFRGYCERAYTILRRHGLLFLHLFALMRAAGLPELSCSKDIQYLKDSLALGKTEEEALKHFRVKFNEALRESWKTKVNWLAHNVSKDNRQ

Row | SMILES | IC50 (PI3K delta; read-out: EPK_PI3Kdelta/IC50) | IC50 (mTOR; read-out: EPK_mTOR/IC50) | IC50 (PI3K delta; read-out: PI3Kdelta/IC50) | IC50 (mTOR; read-out: mTOR/IC50)
1 | CCNc1ncc(-c2ccc3ncc4c(c3c2)n(-c2ccc(N3CC[C@@H](O)C3)nc2C)c(=O)n4C)cc1C(F)(F)F [Example 34.2, 8-(6-Ethylamino-5-trifluoromethyl-pyridin-3-yl)-1-[6-((R)-3-hydroxy-pyrrolidin-1-yl)-2-methyl-pyridin-3-yl]-3-methyl-1,3-dihydro-imidazo[4,5-c]quinolin-2-one] | 0.012 µM | 0.036 µM | – | –
2 | Cc1nc(F)ccc1-n1c(=O)n(C)c2cnc3ccc(-c4cnc5c(ccn5C)c4)cc3c21 [Example 7.2, 1-(6-Fluoro-2-methyl-pyridin-3-yl)-3-methyl-8-(1-methyl-1H-pyrrolo[2,3-b]pyridin-5-yl)-1,3-dihydro-imidazo[4,5-c]quinolin-2-one] | – | – | 0.031 µM | 0.017 µM
3 | CNc1ncc(-c2ccc3ncc4c(c3c2)n(-c2ccc(N3CC(O)C3)nc2C)c(=O)n4C)cc1C(F)(F)F [Example 29.4, 1-[6-(3-Hydroxy-azetidin-1-yl)-2-methyl-pyridin-3-yl]-3-methyl-8-(6-methylamino-5-trifluoromethyl-pyridin-3-yl)-1,3-dihydro-imidazo[4,5-c]quinolin-2-one] | 0.013 µM | 0.012 µM | – | –
4 | CCOc1cc(-c2ccc3ncc4c(c3c2)n(-c2ccc(OCCOC)nc2C)c(=O)n4C)cnc1COC [Example 22.1, 8-(5-Ethoxy-6-methoxymethyl-pyridin-3-yl)-1-[6-(2-methoxy-ethoxy)-2-methyl-pyridin-3-yl]-3-methyl-1,3-dihydro-imidazo[4,5-c]quinolin-2-one] | 0.06 µM | 0.098 µM | – | –
5 | CNc1ncc(-c2ccc3ncc4c(c3c2)n(-c2ccc(N3CC[C@H](O)C3)nc2C)c(=O)n4C)cc1F [Example 32.2, 8-(5-Fluoro-6-methylamino-pyridin-3-yl)-1-[6-((S)-3-hydroxy-pyrrolidin-1-yl)-2-methyl-pyridin-3-yl]-3-methyl-1,3-dihydro-imidazo[4,5-c]quinolin-2-one] | 0.036 µM | 0.01 µM | – | –
6 | CCOc1cc(-c2ccc3ncc4c(c3c2)n(-c2ccc(N3CCCC3)nc2C)c(=O)n4C)cnc1COC [Example 25.2, 8-(5-Ethoxy-6-methoxymethyl-pyridin-3-yl)-3-methyl-1-(2-methyl-6-pyrrolidin-1-yl-pyridin-3-yl)-1,3-dihydro-imidazo[4,5-c]quinolin-2-one] | 0.043 µM | 0.076 µM | – | –
7 | CN(C)c1ccc(-c2ccc3ncc4c(c3c2)n(-c2cccnc2)c(=O)n4C)cn1 [Example 5.3, 8-(6-Dimethylamino-pyridin-3-yl)-3-methyl-1-pyridin-3-yl-1,3-dihydro-imidazo[4,5-c]quinolin-2-one] | – | – | 0.193 µM | 0.253 µM
8 | Cc1nc(C(C)(C)O)ccc1-n1c(=O)n(C)c2cnc3ccc(-c4cncc(C(C)(C)C#N)c4)cc3c21 [Example 31.6, 2-(5-{1-[6-(1-Hydroxy-1-methyl-ethyl)-2-methyl-pyridin-3-yl]-3-methyl-2-oxo-2,3-dihydro-1H-imidazo[4,5-c]quinolin-8-yl}-pyridin-3-yl)-2-methyl-propionitrile] | 0.007 µM | 0.095 µM | – | –
9 | Cn1c(=O)n(-c2cccnc2)c2c3cc(-c4ccc(CO)nc4)ccc3ncc21 [Example 5.1, 8-(6-Hydroxymethyl-pyridin-3-yl)-3-methyl-1-pyridin-3-yl-1,3-dihydro-imidazo[4,5-c]quinolin-2-one] | – | – | 0.088 µM | 0.351 µM
10 | Cc1nc(N(C)CCO)ccc1-n1c(=O)n(C)c2cnc3ccc(-c4cnc(N)c(C(F)(F)F)c4)cc3c21 [Example 26.1, 8-(6-Amino-5-trifluoromethyl-pyridin-3-yl)-1-{6-[(2-hydroxy-ethyl)-methyl-amino]-2-methyl-pyridin-3-yl}-3-methyl-1,3-dihydro-imidazo[4,5-c]quinolin-2-one] | < 0.003 µM | < 0.006 µM | – | –
11 | COC1CCN(c2ccc(-n3c(=O)n(C)c4cnc5ccc(-c6cncc(C(C)(C)O)c6)cc5c43)c(C)n2)C1 (stereo not shown) [Example 28.1, 8-[5-(1-Hydroxy-1-methyl-ethyl)-pyridin-3-yl]-1-[6-(3-methoxy-pyrrolidin-1-yl)-2-methyl-pyridin-3-yl]-3-methyl-1,3-dihydro-imidazo[4,5-c]quinolin-2-one] | 0.059 µM | 0.022 µM | – | –
12 | CNc1ccc(-c2ccc3ncc4c(c3c2)n(-c2ccc(N3CCC3)nc2C)c(=O)n4C)cn1 [Example 23.4, 1-(6-Azetidin-1-yl-2-methyl-pyridin-3-yl)-3-methyl-8-(6-methylamino-pyridin-3-yl)-1,3-dihydro-imidazo[4,5-c]quinolin-2-one] | 0.048 µM | 0.006 µM | – | –
13 | COc1ncccc1-n1c(=O)n(C)c2cnc3ccc(-c4ccc(C(N)=O)cc4)cc3c21 [Example 1.6, 4-[1-(2-Methoxy-pyridin-3-yl)-3-methyl-2-oxo-2,3-dihydro-1H-imidazo[4,5-c]quinolin-8-yl]-benzamide] | – | – | 0.163 µM | 0.01 µM
14 | CNc1ncc(-c2ccc3ncc4c(c3c2)n(-c2ccc(N3CC(F)(F)C3)nc2C)c(=O)n4C)cn1 [Example 24.1, 1-[6-(3,3-Difluoro-azetidin-1-yl)-2-methyl-pyridin-3-yl]-3-methyl-8-(2-methylamino-pyrimidin-5-yl)-1,3-dihydro-imidazo[4,5-c]quinolin-2-one] | 0.164 µM | 0.021 µM | – | –

Further lines, results first:

Row | IC50 (PI3K delta; read-out: EPK_PI3Kdelta/IC50) | IC50 (mTOR; read-out: EPK_mTOR/IC50) | IC50 (PI3K delta; read-out: PI3Kdelta/IC50) | IC50 (mTOR; read-out: mTOR/IC50) | SMILES
15 | 0.504 µM | 0.043 µM | – | – | Cc1ncccc1-n1c(=O)n(C)c2cnc3ccc(-c4cncc(N5CCC5)c4)cc3c21 [Example 2.29, 8-(5-Azetidin-1-yl-pyridin-3-yl)-3-methyl-1-(2-methyl-pyridin-3-yl)-1,3-dihydro-imidazo[4,5-c]quinolin-2-one]
16 | – | – | 0.012 µM | 0.016 µM | Cc1ncccc1-n1c(=O)n(C)c2cnc3ccc(-c4cnc(N)c(C(F)(F)F)c4)cc3c21 [Example 2.11, 8-(6-Amino-5-trifluoromethyl-pyridin-3-yl)-3-methyl-1-(2-methyl-pyridin-3-yl)-1,3-dihydro-imidazo[4,5-c]quinolin-2-one]
17 | 0.003 µM | 0.021 µM | – | – | CNc1ncc(-c2ccc3ncc4c(c3c2)n(-c2ccc(C(C)(C)O)nc2C)c(=O)n4C)cc1F [Example 31.1, 8-(5-Fluoro-6-methylamino-pyridin-3-yl)-1-[6-(1-hydroxy-1-methyl-ethyl)-2-methyl-pyridin-3-yl]-3-methyl-1,3-dihydro-imidazo[4,5-c]quinolin-2-one]
18 | – | – | 0.013 µM | 0.004 µM | COc1ncccc1-n1c(=O)n(C)c2cnc3ccc(-c4cnc5[nH]ccc5c4)cc3c21 [Example 1.2, 1-(2-Methoxy-pyridin-3-yl)-3-methyl-8-(1H-pyrrolo[2,3-b]pyridin-5-yl)-1,3-dihydro-imidazo[4,5-c]quinolin-2-one]
19 | – | – | 0.071 µM | 0.059 µM | CCOc1ccc(-c2ccc3ncc4c(c3c2)n(-c2ccc(F)nc2C)c(=O)n4C)cn1 [Example 7.3, 8-(6-Ethoxy-pyridin-3-yl)-1-(6-fluoro-2-methyl-pyridin-3-yl)-3-methyl-1,3-dihydro-imidazo[4,5-c]quinolin-2-one]
20 | 0.057 µM | 0.012 µM | – | – | Cc1ncccc1-n1c(=O)n(C)c2cnc3ccc(-c4cncc(N)c4)cc3c21 [Example 2.25, 8-(5-Amino-pyridin-3-yl)-3-methyl-1-(2-methyl-pyridin-3-yl)-1,3-dihydro-imidazo[4,5-c]quinolin-2-one]
21 | 0.031 µM | 0.029 µM | – | – | Cc1ncccc1-n1c(=O)n(C)c2cnc3ccc(-c4cncc(NC(C)C)c4)cc3c21 [Example 2.24, 8-(5-Isopropylamino-pyridin-3-yl)-3-methyl-1-(2-methyl-pyridin-3-yl)-1,3-dihydro-imidazo[4,5-c]quinolin-2-one]
22 | 0.017 µM | 0.004 µM | – | – | CCNc1cc(-c2ccc3ncc4c(c3c2)n(-c2ccc(N3CCC3)nc2C)c(=O)n4C)cnc1CO [Example 23.8, 1-(6-Azetidin-1-yl-2-methyl-pyridin-3-yl)-8-(5-ethylamino-6-hydroxymethyl-pyridin-3-yl)-3-methyl-1,3-dihydro-imidazo[4,5-c]quinolin-2-one]
23 | 0.025 µM | < 0.003 µM | – | – | CCNc1cc(-c2ccc3ncc4c(c3c2)n(-c2cccnc2C)c(=O)n4C)cnc1CO [Example 2.31, 8-(5-Ethylamino-6-hydroxymethyl-pyridin-3-yl)-3-methyl-1-(2-methyl-pyridin-3-yl)-1,3-dihydro-imidazo[4,5-c]quinolin-2-one]
24 | – | – | 0.032 µM | 0.074 µM | COc1ccc(-c2ccc3ncc4c(c3c2)n(-c2cccnc2C)c(=O)n4C)cn1 [Example 2.12, 8-(6-Methoxy-pyridin-3-yl)-3-methyl-1-(2-methyl-pyridin-3-yl)-1,3-dihydro-imidazo[4,5-c]quinolin-2-one]
25 | – | – | 0.236 µM | 0.607 µM | CNc1ncc(-c2ccc3ncc4c(c3c2)n(-c2ncccc2C)c(=O)n4C)cn1 [Example 3.4, 3-Methyl-8-(2-methylamino-pyrimidin-5-yl)-1-(3-methyl-pyridin-2-yl)-1,3-dihydro-imidazo[4,5-c]quinolin-2-one]
26 | – | – | 0.032 µM | 0.053 µM | Cc1ncccc1-n1c(=O)n(C)c2cnc3ccc(-c4cnc(N(C)C)nc4)cc3c21 [Example 2.15, 8-(2-Dimethylamino-pyrimidin-5-yl)-3-methyl-1-(2-methyl-pyridin-3-yl)-1,3-dihydro-imidazo[4,5-c]quinolin-2-one]

Reference: patent US20100311714A1, “1H-IMIDAZO[4,5-c]QUINOLINONE COMPOUNDS” (priority 2009, published 2010)
